Source: US8841413B2, “Antidiabetic compounds” (Cadila Healthcare Limited, priority 2006, dated 2014)
Like-named read-outs stand apart in the source and are kept apart here.

Experiments:
[1] = Stability in simulated intestinal fluid; assay type: in vitro ADME; conditions: 2 μM, 37° C., pH 7.5; for half-life: simulated gi fluid, read-out: half-life (t1/2) in simulated intestinal fluid
Description: (§1) Reactions were terminated by the addition of TFA/H2O (15 mL, 10% (v/v)). […] The column was equilibrated with TFA/H2O, at a flow rate of 1 mL/min. […] The absorbance was monitored at 206 nm using UV detector and peaks were collected manually prior to ESI-MS analysis.

[2] = Stability against liver microsomes; assay type: in vitro ADME, human; conditions: 2 μM, 37° C.; for half-life: human, microsomes, read-out: half-life (t1/2) with liver microsomes
Description: as §1

Human GLP-1 receptor = target: T1, Human GLP-1 receptor (Homo sapiens, UniProt P43220); assay type: cell-based
T1 construct: The full-length cDNA was cloned in pcDNA3.1(+); expressed in transfected cells
T1 sequence (P43220 24-463): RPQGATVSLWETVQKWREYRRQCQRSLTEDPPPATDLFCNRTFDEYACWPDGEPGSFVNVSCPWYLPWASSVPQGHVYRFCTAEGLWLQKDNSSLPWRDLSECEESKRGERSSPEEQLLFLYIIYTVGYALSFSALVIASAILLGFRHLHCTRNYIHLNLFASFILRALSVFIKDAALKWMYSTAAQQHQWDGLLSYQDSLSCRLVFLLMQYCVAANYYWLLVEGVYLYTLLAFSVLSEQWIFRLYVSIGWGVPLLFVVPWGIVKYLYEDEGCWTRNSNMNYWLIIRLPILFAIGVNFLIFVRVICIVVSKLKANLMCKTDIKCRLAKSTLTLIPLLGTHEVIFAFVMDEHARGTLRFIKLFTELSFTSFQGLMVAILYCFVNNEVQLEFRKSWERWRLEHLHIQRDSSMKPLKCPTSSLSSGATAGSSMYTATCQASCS
How it was run: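 Stably transfected CHO cells expressing human GLP-1R, passages 9-25, exposed to compounds for 30 min at 37 °C. Lysed in ice-cold 0.1 N HCl; total cAMP by immunoassay, protein by micro BCA; expressed as percent of water vehicle control, mean±SD.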

[3] = Stability in simulated gastric fluid; assay type: in vitro ADME; conditions: 2 μM, 37° C., pH 1.5, pepsin; for half-life: simulated gi fluid, read-out: half-life (t1/2) in simulated gastric fluid
Description: as §1

[4] = Stability in human plasma; assay type: in vitro ADME; conditions: 2 μM, 37° C.; for half-life: human, plasma, read-out: half-life (t1/2) in human plasma
Description: as §1

DPP IV = DPP IV (Homo sapiens, UniProt P27487); test: Stability against DPP IV enzyme; assay type: in vitro ADME; conditions: 2 μM, 37° C.; for half-life: read-out: half-life (t1/2) with DPP-IV enzyme
Sequence of DPP IV (P27487 whole entry, species assumed): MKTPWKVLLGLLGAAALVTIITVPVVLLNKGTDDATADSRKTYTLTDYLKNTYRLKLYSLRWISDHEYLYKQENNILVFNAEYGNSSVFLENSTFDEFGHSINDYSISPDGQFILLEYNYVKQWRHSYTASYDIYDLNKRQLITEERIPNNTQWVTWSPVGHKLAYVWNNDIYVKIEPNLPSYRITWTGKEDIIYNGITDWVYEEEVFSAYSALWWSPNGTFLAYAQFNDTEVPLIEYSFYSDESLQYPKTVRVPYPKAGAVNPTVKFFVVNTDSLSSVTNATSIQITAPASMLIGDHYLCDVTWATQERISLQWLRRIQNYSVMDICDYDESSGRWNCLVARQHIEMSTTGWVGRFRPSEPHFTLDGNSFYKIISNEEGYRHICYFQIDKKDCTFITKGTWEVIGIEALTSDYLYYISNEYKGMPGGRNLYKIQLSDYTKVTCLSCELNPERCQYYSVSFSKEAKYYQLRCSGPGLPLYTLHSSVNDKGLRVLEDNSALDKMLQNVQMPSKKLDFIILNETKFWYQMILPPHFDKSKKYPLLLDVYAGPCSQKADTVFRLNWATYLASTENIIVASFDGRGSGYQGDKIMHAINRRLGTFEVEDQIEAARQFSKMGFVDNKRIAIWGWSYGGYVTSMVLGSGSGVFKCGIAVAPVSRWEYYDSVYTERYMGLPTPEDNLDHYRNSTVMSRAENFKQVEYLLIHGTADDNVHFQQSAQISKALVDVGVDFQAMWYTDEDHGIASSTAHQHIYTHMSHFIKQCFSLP
Description: as §1

Row | % degradation in 24 h when incubated with simulated intestinal fluid [1] | half-life [1] | % degradation in 24 h when incubated with liver microsomes [2] | half-life [2] | Human GLP-1 R activity (cAMP release), % activity with respect to control (Human GLP-1 receptor; 1 nM test compound) | Human GLP-1 R activity (cAMP release), % activity with respect to control (Human GLP-1 receptor; 10 nM test compound) | Human GLP-1 R activity (cAMP release), % activity with respect to control (Human GLP-1 receptor; 100 nM test compound) | Human GLP-1 R activity (cAMP release), % activity with respect to control (Human GLP-1 receptor; 1 μM test compound) | Human GLP-1 R activity (cAMP release), % activity with respect to control (Human GLP-1 receptor; 10 μM test compound) | % degradation in 24 h when incubated with simulated gastric fluid [3] | half-life [3] | % degradation in 24 h when incubated with human plasma [4] | half-life [4] | % degradation in 24 h when incubated with DPP-IV enzyme (DPP IV) | half-life (DPP IV) | half-life (t1/2) with liver microsomes [2] | SMILES
1 | 00% | > 24 h | 84% | 2 h | 96 ± 0.02% | 99 ± 0.46% | 99 ± 0.41% | 99 ± 0.66% | 99 ± 0.03% | 43% | 4 h | 00% | > 24 h | 00% | > 24 h | – | CCc1cc(OC)ccc1-c1ccc(CC(NC(=O)[C@H](CC(=O)O)NC(=O)[C@H](CO)NC(=O)[C@@H](NC(=O)[C@H](Cc2ccccc2)NC(=O)[C@@H](NC(=O)CNC(=O)[C@H](CCC(N)=O)NC(=O)C2(NC(=O)[C@@H](N)Cc3c[nH]cn3)CC2)[C@@H](C)O)[C@@H](C)O)C(=O)NC(Cc2ccc(-c3ccccc3F)cc2)C(N)=O)cc1 (single isomer, unassigned) [compound 19]
2 | 00% | > 24 h | 86% | 2 h | 60 ± 0.12% | 92 ± 0.15% | 98 ± 0.18% | 99 ± 0.03% | 99 ± 0.09% | 50% | 4 h | 00% | > 24 h | 00% | > 24 h | – | CCc1cc(OC)ccc1-c1ccc(CC(NC(=O)[C@H](CC(=O)O)NC(=O)[C@H](CO)NC(=O)[C@@H](NC(=O)[C@H](Cc2ccccc2)NC(=O)[C@@H](NC(=O)CNC(=O)[C@H](CCC(N)=O)NC(=O)C(C)(C)NC(=O)[C@@H](N)Cc2c[nH]cn2)[C@@H](C)O)[C@@H](C)O)C(=O)NC(Cc2ccc(-c3ccccc3C)cc2)C(N)=O)cc1 (single isomer, unassigned) [compound 13]
3 | 00% | > 24 h | 81% | 2 h | 86 ± 0.11% | 99 ± 0.09% | 99 ± 0.06% | 99 ± 0.14% | 99 ± 0.19% | 52% | 4 h | 00% | > 24 h | 00% | > 24 h | – | CCc1cc(OC)ccc1-c1ccc(CC(NC(=O)[C@H](CC(=O)O)NC(=O)[C@H](CO)NC(=O)[C@@H](NC(=O)[C@H](Cc2ccccc2)NC(=O)[C@@H](NC(=O)CNC(=O)[C@H](CCC(N)=O)NC(=O)C2(NC(=O)[C@@H](N)Cc3c[nH]cn3)CC2)[C@@H](C)O)[C@@H](C)O)C(=O)NC(Cc2ccc(-c3ccccc3C)nc2)C(N)=O)cc1 (single isomer, unassigned) [compound 18]
4 | 00% | > 24 h | 35% | – | 96 ± 0.09% | 99 ± 0.07% | 99 ± 0.04% | 99 ± 0.01% | 99 ± 0.08% | 00% | > 24 h | 00% | > 24 h | 00% | > 24 h | (5) h | CCc1cc(OC)ccc1-c1ccc(CC(NC(=O)[C@H](CC(=O)O)NC(=O)[C@H](CO)NC(=O)[C@@H](NC(=O)C(C)(Cc2ccccc2F)NC(=O)[C@@H](NC(=O)CNC(=O)[C@H](CCC(N)=O)NC(=O)C2(NC(=O)[C@@H](N)Cc3c[nH]cn3)CC2)[C@@H](C)O)[C@@H](C)O)C(=O)NC(Cc2ccc(-c3ccccc3C(F)(F)F)cc2)C(N)=O)cc1 (single isomer, unassigned) [compound 36]
5 | 00% | > 24 h | 33% | – | 93 ± 0.11% | 99 ± 0.09% | 99 ± 0.06% | 99 ± 0.14% | 99 ± 0.19% | 00% | > 24 h | 00% | > 24 h | 00% | > 24 h | (5) h | CCc1cc(OC)ccc1-c1ccc(CC(NC(=O)[C@H](CC(=O)O)NC(=O)[C@H](CO)NC(=O)[C@@H](NC(=O)C(C)(Cc2ccccc2F)NC(=O)[C@@H](NC(=O)CNC(=O)[C@H](CCC(N)=O)NC(=O)C(C)(C)NC(=O)[C@@H](N)Cc2c[nH]cn2)[C@@H](C)O)[C@@H](C)O)C(=O)NC(Cc2ccc(-c3ccccc3C)nc2)C(N)=O)cc1 (single isomer, unassigned) [compound 30]
6 | 00% | > 24 h | 84% | 2 h | 69 ± 0.09% | 98 ± 0.07% | 99 ± 0.04% | 99 ± 0.01% | 99 ± 0.08% | 43% | 4 h | 00% | > 24 h | 00% | > 24 h | – | CCc1cc(OC)ccc1-c1ccc(CC(NC(=O)[C@H](CC(=O)O)NC(=O)[C@H](CO)NC(=O)[C@@H](NC(=O)[C@H](Cc2ccccc2)NC(=O)[C@@H](NC(=O)CNC(=O)[C@H](CCC(N)=O)NC(=O)C(C)(C)NC(=O)[C@@H](N)Cc2c[nH]cn2)[C@@H](C)O)[C@@H](C)O)C(=O)NC(Cc2ccc(-c3ccccc3C(F)(F)F)cc2)C(N)=O)cc1 (single isomer, unassigned) [compound 16]
7 | 00% | > 24 h | 26% | – | 99 ± 0.02% | 99 ± 0.26% | 99 ± 0.31% | 99 ± 0.60% | 99 ± 0.08% | 00% | > 24 h | 00% | > 24 h | 00% | > 24 h | (5) h | CCc1cc(OC)ccc1-c1ccc(CC(NC(=O)[C@H](CC(=O)O)NC(=O)[C@H](CO)NC(=O)[C@@H](NC(=O)C(C)(Cc2ccccc2F)NC(=O)[C@@H](NC(=O)CNC(=O)[C@H](CCC(N)=O)NC(=O)C2(NC(=O)[C@@H](N)Cc3c[nH]cn3)CC2)[C@@H](C)O)[C@@H](C)O)C(=O)NC(Cc2ccc(-c3ccccc3F)cc2)C(N)=O)cc1 (single isomer, unassigned) [compound 35]
